From US10053477B2, “Spirocyclic aryl phosphorus oxide and aryl phosphorus sulfide” (QILU PHARMACEUTICAL CO., LTD., priority 2014, dated 2018)

Legend:
[1] = molecular target: T1, EGFR T790M/L858R (Homo sapiens, UniProt P00533, L858R/T790M); test: EGFR T790M/L858R enzymatic inhibition (HTRF); type: biochemical; details: 20 μM ATP
T1 construct: purchased Life technology (Madison, Wis.)
Description: Enzyme: ALK wild-type, ALK C1156Y and ALK L1196M supplied by Carna Biosciences (Japan), EGFR T790M/L858R supplied by Life technology (Madison, Wis.).
HTRF kit: supplied by Cis-Bio International, with Eu-marked TK1 antibody, XL665- and biotin-labelled TK1 polypeptide substrates.
The compound to be tested is diluted at a gradient by 3 times thereby giving 11 gradients starting from […] to 0.017 nM for the final concentration.
10 μl EGFR T790M/L858R enzyme reaction mixture system: 0.08 nM EGFR T790M/L858R, 1 μM biotin-TK1 peptide, 20 μM ATP. Reaction buffer: 50 mM Hepes (pH7.5), 10 mM MgCl2, 0.01 mM NaV3VO4. The reaction plate was white Proxiplate 384-Plus plate (PerkinElmer). Reaction was reacted at room temperature for 60 minutes.
Detecting reaction: 10 μl testing reagent was added to the reaction plate, the final concentration of Antibody was 2 nM, XL665 was 62.5 nM. Incubation was carried out for 60 minutes at room temperature. Detection was by Envision.

[2] = test system: LU-01-0015 xenotransplantation (PDX) from lung cancer patients; test: In vivo efficacy, LU-01-0015 xenotransplantation (PDX) from lung cancer patients; set-up: species or system BALB/c nude mice; details: 25 mg/kg orally everyday
From the text: BALB/c nude mice, female, 6 to 8 weeks, about 18 to 22 g bodyweight, was kept in a special environment without pathogens, and a single ventilated cage (5 mice per cage). Beddings and water in all the cages were disinfected before use. […] 80 mice were supplied by Shanghai BK Laboratory Animal Co., LTD for study. Each mouse was subcutaneously implanted tumor tissue (20-30 mm^3) at right flank for growth of tumor. When the average tumor volume reached about 250-300 mm^3, the assay started. Test compounds were delivered orally everyday, 25 mg/kg. Tumor size was measured with two-dimensional caliper every 3 days, size was recorded by mm^3, and calculated by the following formula: V=V=0.5a×b2, where a and b are respectively the long diameter and short diameter length of the tumor. The antitumor efficacy was determined by dividing the average increased tumor volume in compound-treated animal by the average increased tumor volume in untreated animal.

[3] = test system: LU-01-0319 Crizotinib resistance model; test: In vivo anti-tumor efficacy, Crizotinib resistant LU-01-0319 xenotransplantation (PDX) tumor; set-up: species or system BALB/c nude mice
From the text: LU-01-0319 xenotransplantation tumor models initially obtained from clinical sample through surgical resection were implanted into nude mice, which was defined as a batch of P0 (LU-01-0319-P0). The next batch was defined as P1 (LU-01-0319-P1) which was implanted tumors from P0. FP3 was regained from P2, the next batch was defined as FP4 which was implanted tumors from FP3. […] The continuous increasing tumors were defined as LU-01-0319 antitumor models. BALB/c nude mice, female, 6 to 8 weeks, about 18 to 22 g bodyweight, 75 mice were used for study, supplied by Shanghai BK Laboratory Animal Co., LTD. Tumour biopsies (about 30 mm^3) of LU-01-0319R FP6 were implanted subcutaneously on right side of each mouse for growth of tumor. […] Dose of Crizotinib was appropriately varied depending on the tumor size. When average tumor volume reached about ˜500 mm^3, the assay began. Once a day the compounds to be tested were orally administered. Tumor size were measured twice a week with a caliper at two dimensions, and calculated with the following formula: V=0.5a×b2, where a and b are respectively long diameter and short diameter of the tumor. The antitumor efficacy was determined by dividing the average increased tumor volume in compound-treated animal by the average increased tumor volume in untreated animal.

T1 sequence (P00533 25-1210 T790M/L858R): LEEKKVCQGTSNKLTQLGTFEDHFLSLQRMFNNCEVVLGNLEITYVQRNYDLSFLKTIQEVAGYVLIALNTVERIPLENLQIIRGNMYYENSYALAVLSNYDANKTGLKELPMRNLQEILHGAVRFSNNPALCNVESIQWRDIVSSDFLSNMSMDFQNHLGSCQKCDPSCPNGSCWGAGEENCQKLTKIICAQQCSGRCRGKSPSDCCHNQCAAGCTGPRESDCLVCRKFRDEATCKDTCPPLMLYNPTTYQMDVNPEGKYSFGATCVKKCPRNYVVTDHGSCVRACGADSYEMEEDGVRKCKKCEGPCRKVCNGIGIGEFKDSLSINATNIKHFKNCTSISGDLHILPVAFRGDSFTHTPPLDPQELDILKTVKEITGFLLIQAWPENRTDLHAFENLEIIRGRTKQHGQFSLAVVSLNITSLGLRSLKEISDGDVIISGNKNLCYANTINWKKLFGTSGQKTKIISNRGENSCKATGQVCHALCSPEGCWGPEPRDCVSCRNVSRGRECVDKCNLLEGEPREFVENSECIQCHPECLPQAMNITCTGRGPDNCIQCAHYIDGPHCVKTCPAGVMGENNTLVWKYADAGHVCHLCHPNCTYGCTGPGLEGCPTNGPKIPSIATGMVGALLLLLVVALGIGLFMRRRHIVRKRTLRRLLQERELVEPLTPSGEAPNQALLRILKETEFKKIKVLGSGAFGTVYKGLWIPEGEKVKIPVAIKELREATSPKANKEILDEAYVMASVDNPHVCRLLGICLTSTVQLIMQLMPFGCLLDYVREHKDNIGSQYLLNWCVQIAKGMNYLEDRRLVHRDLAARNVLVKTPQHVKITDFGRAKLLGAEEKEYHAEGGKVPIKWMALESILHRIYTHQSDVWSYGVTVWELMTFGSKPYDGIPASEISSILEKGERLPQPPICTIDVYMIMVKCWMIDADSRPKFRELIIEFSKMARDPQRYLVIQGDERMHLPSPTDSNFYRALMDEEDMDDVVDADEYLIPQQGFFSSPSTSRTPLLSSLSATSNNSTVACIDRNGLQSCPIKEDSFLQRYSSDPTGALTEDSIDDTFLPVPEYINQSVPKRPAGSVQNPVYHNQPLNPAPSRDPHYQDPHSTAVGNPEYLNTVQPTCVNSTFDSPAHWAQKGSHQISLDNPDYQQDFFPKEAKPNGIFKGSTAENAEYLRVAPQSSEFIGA

SMILES	IC50 [1] [nM]	Tumor volume ([2]; 3 days) [mm^3]	Tumor volume ([2]; 6 days) [mm^3]	Tumor volume ([2]; 9 days) [mm^3]	Tumor volume ([2]; 12 days) [mm^3]	Tumor volume ([2]; 16 days) [mm^3]	Tumor volume ([2]; 19 days) [mm^3]	Tumor volume ([2]; 23 days) [mm^3]	further results
C[C@@H](Oc1cc(-c2cnn(C3CCNCC3)c2)cnc1N)c1c(Cl)ccc(F)c1Cl [Crizotinib, reference compound]		297	288	311	340	413	419	439	Tumor volume ([3]; 0 day, 25 mg/Kg orally once a day): 502 mm^3; Tumor volume ([3]; 3 days, 25 mg/Kg orally once a day): 708 mm^3; Tumor volume ([3]; 7 days, 25 mg/Kg orally once a day): 828 mm^3; Tumor volume ([3]; 10 days, 25 mg/Kg orally once a day): 1002 mm^3; Tumor volume ([3]; 13 days, 25 mg/Kg orally once a day): 1116 mm^3; Tumor volume ([3]; 17 days, 25 mg/Kg orally once a day): 1415 mm^3; Tumor volume ([3]; 19 days, 25 mg/Kg orally once a day): 1488 mm^3
COc1cc(N2CCC3(CCN(C)CC3)CC2)ccc1Nc1ncc(Cl)c(Nc2c(F)cccc2P(C)(C)=O)n1 [Compound 25, (2-((5-Chloro-2-((2-methoxy-4-(9-methyl-3,9-diazaspiro[5.5]undecan-3-yl)phenyl)amino)pyrimidin-4-yl)amino)-3-fluorophenyl)dimethyl phosphine oxide]	101 to 1000								
COc1cc(N2CCC3(CCN(C)CC3)CC2)ccc1Nc1ncc(Cl)c(Nc2ccccc2P(C)(C)=S)n1 [Compound 12, 5-Chloro-N^4-(2-(dimethylphosphorothioyl)phenyl)-N^2-(2-methoxy-4-(9-methyl-3,9-diazaspiro[5.5]undecan-3-yl)phenyl)pyrimidine-2,4-diamine]	1 to 100	199	97	90	58	49	42	32	
COc1cc(N2CCC3(CCNC3)CC2)ccc1Nc1ncc(Cl)c(Nc2ccccc2P(C)(C)=O)n1 [Compound 3, (2-((5-Chloro-2-((2-methoxy-4-(2,8-diazaspiro[4.5]decan-8-yl)phenyl)amino)pyrimidin-4-yl)amino)phenyl)dimethylphosphine oxide]	1 to 100								
COc1cc(N2CCC3(CCN(C)CC3)CC2)ccc1Nc1ncc(Cl)c(Nc2ccc(F)cc2P(C)(C)=O)n1 [Compound 26, (2-((5-Chloro-2-((2-methoxy-4-(9-methyl-3,9-diazaspiro[5.5]undecan-3-yl)phenyl)amino)pyrimidin-4-yl)amino)-5-fluorophenyl)dimethyl phosphine oxide]	1 to 100	235	127	84	55	46	59	53	
COc1cc(N2CCC3(CCN(C)CC3)CC2)c(Cl)cc1Nc1ncc(Cl)c(Nc2ccccc2P(C)(C)=O)n1 [Compound 22, (2-((5-Chloro-2-((5-chloro-2-methoxy-4-(9-methyl-3,9-diazaspiro[5.5]undecan-3-yl)phenyl)amino)pyrimidin-4-yl)amino)phenyl)dimethyl phosphine oxide]	1 to 100	234	137	90	68	46	54	41	
COc1cc(N2CCC3(CCN(C)CC3)CC2)c(F)cc1Nc1ncc(Cl)c(Nc2ccccc2P(C)(C)=O)n1 [Compound 20, (2-((5-Chloro-2-((5-fluoro-2-methoxy-4-(9-methyl-3,9-diazaspiro[5.5]undecan-3-yl)phenyl)amino)pyrimidin-4-yl)amino)phenyl)dimethyl phosphine oxide]	1 to 100								

Now from value to molecule, other results behind:

IC50 [1] [nM]	SMILES	Tumor volume ([2]; 3 days) [mm^3]	Tumor volume ([2]; 6 days) [mm^3]	Tumor volume ([2]; 9 days) [mm^3]	Tumor volume ([2]; 12 days) [mm^3]	Tumor volume ([2]; 16 days) [mm^3]	Tumor volume ([2]; 19 days) [mm^3]	Tumor volume ([2]; 23 days) [mm^3]	further results
1 to 100	COc1cc(C2CCC3(CC2)CCN(C)CC3)ccc1Nc1ncc(Cl)c(Nc2ccccc2P(C)(C)=O)n1 [Compound 27, (2-((5-Chloro-2-((2-methoxy-4-(3-methyl-3-azaspiro[5.5]undecan-9-yl)phenyl)amino)pyrimidin-4-yl)amino)phenyl)dimethyl phosphine oxide]	158	82	68	49	34	41	35	Tumor volume ([3]; 0 day, dosage 3 mg/Kg orally once a day): 503 mm^3; Tumor volume ([3]; 0 day, dosage 10 mg/Kg orally once a day): 502 mm^3; Tumor volume ([3]; 3 days, dosage 3 mg/Kg orally once a day): 689 mm^3; Tumor volume ([3]; 3 days, dosage 10 mg/Kg orally once a day): 650 mm^3; Tumor volume ([3]; 7 days, dosage 3 mg/Kg orally once a day): 777 mm^3; Tumor volume ([3]; 7 days, dosage 10 mg/Kg orally once a day): 752 mm^3; Tumor volume ([3]; 10 days, dosage 3 mg/Kg orally once a day): 1003 mm^3; Tumor volume ([3]; 10 days, dosage 10 mg/Kg orally once a day): 743 mm^3; Tumor volume ([3]; 13 days, dosage 3 mg/Kg orally once a day): 1177 mm^3; Tumor volume ([3]; 13 days, dosage 10 mg/Kg orally once a day): 705 mm^3; Tumor volume ([3]; 17 days, dosage 3 mg/Kg orally once a day): 1490 mm^3; Tumor volume ([3]; 17 days, dosage 10 mg/Kg orally once a day): 756 mm^3; Tumor volume ([3]; 19 days, dosage 3 mg/Kg orally once a day): 1602 mm^3; Tumor volume ([3]; 19 days, dosage 10 mg/Kg orally once a day): 692 mm^3
1 to 100	COc1cc(N2CCC3(CCN(C)CC3)CC2)c(C)cc1Nc1ncc(Cl)c(Nc2ccccc2P(C)(C)=O)n1 [Compound 23, (2-((5-Chloro-2-((2-methoxy-5-methyl-4-(9-methyl-3,9-diazaspiro[5.5]undecan-3-yl)phenyl)amino)pyrimidin-4-yl)amino)phenyl)dimethyl phosphine oxide]								
1 to 100	CN1CCC2(CC1)CCN(c1ccc(Nc3ncc(Cl)c(Nc4ccccc4P(C)(C)=O)n3)c(OC(F)F)c1)CC2 [Compound 11, (2-((5-Chloro-2-((2-(difluoromethoxy)-4-(9-methyl-3,9-diazaspiro[5.5]undecan-3-yl)phenyl)amino)pyrimidin-4-yl)amino)phenyl)dimethyl phosphine oxide]								
1 to 100	COc1cc(N2CCC3(CC2)CNC3)ccc1Nc1ncc(Cl)c(Nc2ccccc2P(C)(C)=O)n1 [Compound 4, (2-((5-Chloro-2-((2-methoxy-4-(2,7-diazaspiro[3.5]nonan-7-yl)phenyl)amino)pyrimidin-4-yl)amino)phenyl)dimethyl phosphine oxide]								
1 to 100	COc1cc(N2CCC3(CCNCC3)CC2)ccc1Nc1ncc(Cl)c(Nc2ccccc2P(C)(C)=O)n1 [Compound 8, (2-((5-Chloro-2-((2-methoxy-4-(3,9-diazaspiro[5.5]undecan-3-yl)phenyl)amino)pyrimidin-4-yl)amino)phenyl)dimethyl phosphine oxide]								
1 to 100	COc1cc(N2CCC3(CNC3)C2)ccc1Nc1ncc(Cl)c(Nc2ccccc2P(C)(C)=O)n1 [Compound 6, (2-((5-Chloro-2-((2-methoxy-4-(2,6-diazaspiro[3.4]octan-6-yl)phenyl)amino)pyrimidin-4-yl)amino)phenyl)dimethyl phosphine oxide]								
